In patent US5763408A, “Amino acid derivatives and application thereof” (Fuji Photo Film Co., Ltd., priority 1992, dated 1998):

Key:
colon 26/M3.1 cells = assay: Experimental metastasis test of colon 26/M3.1 cells in lung; assay type: in vivo, C57BL/6 female mice; conditions: Table 13, 1000 μg/mouse, day 14, PBS control 148 ± 12
Experimental: A test compound and colon 26/M3.1 cells, which have strong metastatic property, were mixed in PBS. 0.2 ml of the mixture was intravenously injected to each of C57BL/6 female mice, of which groups each consisted of 5 mice. The mixture injected (0.2 ml) contained 4×10^4 colon 26/M3.1 cells. On the 14th day from the administration, number of colonies in lung was determined and compared with that of control mice, which were administered with PBS.
A segment peptide of fibronectin, Gly-Arg-Gly-Asp-Ser (GRGDS), of which tumour metastasis inhibition activities have been known, was used as a comparative sample.

[1] = test system: L5178Y-ML25 T-lymphoma cells; assay: Experimental metastasis of L5178Y-ML25 T-lymphoma cells (weights of livers and spleens); assay type: in vivo, CDF1 mice; conditions: day 14, in g (unit assumed); for Weight of spleen (Mean ± SD): PBS 0.23 ± 0.03, no lymphoma cell 0.12 ± 0.02; for Weight of liver (Mean ± SD): PBS 4.18 ± 0.30, no lymphoma cell 1.36 ± 0.02
Experimental: A test compound and L5178Y-ML25 T-lymphoma cells were mixed in PBS. 0.2 ml of the mixture was intravenously injected to each of CDF1 mice, of which groups each consisted of 5 mice. The mixture injected (0.2 ml) contained 4×10^4 L5178Y-ML25 T-lymphoma cells. On the 14th day from the administration, weights of livers and spleens of mice were determined and compared with those of control mice, which were administered with PBS.

B16-BL6 melanoma cells = assay: Experimental metastasis test of B16-BL6 melanoma cells in lung; assay type: in vivo, C57BL/6 female mice; conditions: day 14
Experimental: Tumor metastasis inhibition activities of the compounds of the present invention were examined.
A test compound and B16-BL6 melanoma cells, which have strong metastatic property, were mixed in PBS. 0.2 ml of the mixture was intravenously injected to each of C57BL/6 female mice, of which groups each consisted of 5 mice. The mixture injected (0.2 ml) contained 5×10^4 B16-BL6 cells. On the 14th day from the administration, number of melanoma cell colonies was determined and compared with that of control mice, which were administered with PBS.

[2] = test system: PRP (polyplatelet rich plasma); assay: Platelet aggregation inhibition activity (ADP-induced aggregation in PRP); assay type: cell-based; conditions: for Platelet aggregation inhibition rate (%): test compound 1 mg/ml in PRP, ADP as inducer, five minutes later
Experimental: Platelet aggregation inhibition activities of Compounds 1, 2, 3, 4, 5, 6, 7 and 15 were examined.
A test compound was added to PRP (polyplatelet rich plasma, 3×10^8 cells/ml) so that the plasma contained the compound at a concentration of 1 mg/ml and the plasma was added with 10 μl of ADP as an aggregation inducing substance. Five minutes later, aggregation ratio was determined by a chronologic whole blood aggregation ability measuring apparatus to calculate platelet aggregation inhibition ratio.

[3] = Table 4, 500 μg/mouse, PBS control 96 ± 14
[4] = Table 5, 1000 μg/mouse, PBS control 118 ± 15
[5] = Table 6, 500 μg/mouse, PBS control 103 ± 30
[6] = Table 7, 500 μg/mouse, PBS control 101 ± 28
[7] = Table 11, 500 μg/mouse, PBS control 114 ± 28

N=C(N)NCCC[C@H](NC(=O)CC(=O)N[C@@H](CC(=O)O)C(=O)O)C(=O)O [Compound 1]
Number of colonies (Mean ± SD) (colon 26/M3.1 cells): 31 ± 26
Weight of spleen (Mean ± SD) ([1]; 100 μg/mouse): 0.18 ± 0.02
Weight of liver (Mean ± SD) ([1]; 100 μg/mouse): 3.09 ± 0.78
Weight of spleen (Mean ± SD) ([1]; 500 μg/mouse): 0.20 ± 0.02
Weight of liver (Mean ± SD) ([1]; 500 μg/mouse): 2.98 ± 0.29
Weight of spleen (Mean ± SD) ([1]; 1000 μg/mouse): 0.14 ± 0.01
Weight of liver (Mean ± SD) ([1]; 1000 μg/mouse): 1.84 ± 0.36
Number of colonies (Mean ± SD) (B16-BL6 melanoma cells; Table 2, 1000 μg/mouse i.v. mixed with cells, PBS control 141 ± 16): 46 ± 10
Number of colonies (Mean ± SD) (B16-BL6 melanoma cells; [3]): 13 ± 6
Number of colonies (Mean ± SD) (B16-BL6 melanoma cells; [4]): 25 ± 8
Number of colonies (Mean ± SD) (B16-BL6 melanoma cells; [5]): 63 ± 23
Number of colonies (Mean ± SD) (B16-BL6 melanoma cells; [6]): 19 ± 11
IC50 ([2]; platelet aggregation, PRP, ADP): 2400 µM
Platelet aggregation inhibition rate (%) [2]: 57%

N=C(N)NCCC[C@@H](NC(=O)CC(=O)N[C@@H](CC(=O)O)C(=O)O)C(=O)O [Compound 2]
Number of colonies (Mean ± SD) (B16-BL6 melanoma cells; Table 3, 500 μg/mouse, PBS control 81 ± 23): 39 ± 13
Number of colonies (Mean ± SD) (B16-BL6 melanoma cells; Table 3, 1000 μg/mouse, PBS control 81 ± 23): 3 ± 2
Number of colonies (Mean ± SD) (B16-BL6 melanoma cells; [3]): 23 ± 9
Number of colonies (Mean ± SD) (B16-BL6 melanoma cells; [5]): 72 ± 15
Number of colonies (Mean ± SD) (B16-BL6 melanoma cells; [6]): 38 ± 16
Platelet aggregation inhibition rate (%) [2]: 53%

CNC(=O)C(CC(=O)O)NC(=O)CC(=O)NC(CCCNC(=N)N)C(=O)O (stereo not shown) [Compound 8]
Number of colonies (Mean ± SD) (B16-BL6 melanoma cells; [3]): 55 ± 12
Number of colonies (Mean ± SD) (B16-BL6 melanoma cells; [4]): 24 ± 9

CNC(=O)C(CCCNC(=N)N)NC(=O)CC(=O)NC(CC(=O)O)C(=O)O (stereo not shown) [Compound 12]
Number of colonies (Mean ± SD) (B16-BL6 melanoma cells; [3]): 58 ± 20
Number of colonies (Mean ± SD) (B16-BL6 melanoma cells; [4]): 19 ± 6

CNC(=O)C(CCCNC(=N)N)NC(=O)CC(=O)NC(CC(=O)O)C(=O)NC (stereo not shown) [Compound 14]
Number of colonies (Mean ± SD) (B16-BL6 melanoma cells; [3]): 94 ± 26
Number of colonies (Mean ± SD) (B16-BL6 melanoma cells; [4]): 69 ± 7

N=C(N)NCCC[C@H](NC(=O)CC(=O)N[C@@H](CC(=O)O)C(=O)N[C@@H](CO)C(=O)O)C(=O)O [Compound 15]
Number of colonies (Mean ± SD) (B16-BL6 melanoma cells; [5]): 39 ± 17
Number of colonies (Mean ± SD) (B16-BL6 melanoma cells; [6]): 32 ± 8
Platelet aggregation inhibition rate (%) [2]: 47%

N=C(N)NCCCC(NC(=O)CC(=O)NC(CC(=O)O)C(=O)O)C(=O)NCC(=O)O (stereo not shown) [Compound 19]
Number of colonies (Mean ± SD) (B16-BL6 melanoma cells; Table 8, 1000 μg/mouse, PBS control 168 ± 28): 32 ± 8
Number of colonies (Mean ± SD) (B16-BL6 melanoma cells; Table 9, 1000 μg/mouse, PBS control 168 ± 28): 32 ± 8

N=C(N)NCCCC(NC(=O)C(=O)NC(CC(=O)O)C(=O)O)C(=O)O (stereo not shown) [Compound 33]
Number of colonies (Mean ± SD) (B16-BL6 melanoma cells; [7]): 51 ± 18

N=C(N)NCCCC(NCC(=O)NC(CC(=O)O)C(=O)O)C(=O)O (stereo not shown) [Compound 34]
Number of colonies (Mean ± SD) (B16-BL6 melanoma cells; [7]): 51 ± 19

N=C(N)NCCCC(NC(=O)CNC(CC(=O)O)C(=O)O)C(=O)O (stereo not shown) [Compound 35]
Number of colonies (Mean ± SD) (B16-BL6 melanoma cells; [7]): 52 ± 14
